Inconclusive results are not listed. The source made the active and inactive calls.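 The calls were made as follows: active = Normal-ribosome green reporter loss at least double humanized-ribosome red reporter loss, with overall culture growth inhibition under a set limit; inconclusive = no clear call, values can overlap the other calls; inactive = the rest.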
System: E. coli wild-type GFP growth, mixed culture, 24 h
Experiment: growth inhibition of wild-type GFP E. coli, H38-humanized RFP comparator, dose response, H38 mutant RFP vs wild-type GFP, cherry-pick (AID 977630);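 also: wild-type GFP strain mixed equally with humanized-ribosome H38 mutant expressing RFP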
[1] = E. coli mixed culture total OD600 growth, 24 h

Compound | AC50 | AC50 [1] [µM]
CN1CCN(c2nc(Nc3ccc(O)cc3)nc3ccccc23)CC1 | > 100 µM (inactive) | 
Nc1[nH]c(C(=O)c2ccccc2)c(-c2ccc(Cl)cc2)c1C(=O)NCCc1c[nH]c2ccccc12 | > 100 µM (inactive) | > 100
CCc1nc2ccccc2n1CCc1ccccc1 | > 100 µM (inactive) | 
O=C(CCNC(=O)c1ccco1)Nc1cccc(Br)c1 | > 100 µM (inactive) | 
Cc1ccc(-c2nc(CN3CCCCC3c3cccc(F)c3)c(C)o2)o1 (stereo not drawn) | > 100 µM (inactive) | 
O=C(Nc1ccc2nc(-c3cccnc3)[nH]c2c1)c1ccco1 | > 100 µM (inactive) | 
CCNC(=O)C1(C)CCCN(Cc2cccc3ccccc23)C1 (stereo not drawn) | > 100 µM (inactive) | 
Cc1nnn(C23CC4CC(CC(CC(=O)Nc5ccc(C)c(C)c5)(C4)C2)C3)n1 | > 100 µM (inactive) | 
O=[N+]([O-])c1ccccc1Oc1ccc(Cl)c2cccnc12 | > 100 µM (inactive) | 
CC1(C)CC2CC(C)(CN2c2ncnc3ccccc23)C1 (stereo not drawn) | > 100 µM (inactive) | > 100
CCOC(=O)C(CC)Sc1cc(C)nc2ccc(OC)cc12 (stereo not drawn) |  | > 100
O=c1[nH]nc(SCc2ccccc2)n1C1CC2C=CC1C2 (stereo not drawn) | > 100 µM (inactive) | 49.8
C=CCN(c1ccccc1)S(=O)(=O)c1ccc(Cl)c(C(=O)OCC(=O)NCCCN2CCCC2=O)c1 |  | > 100
COCC(C)NC(=O)c1nn(Cc2ccccc2)c(=O)c2ccccc12 (stereo not drawn) | > 100 µM (inactive) | > 100
O=c1[nH]c(C2CCCN(S(=O)(=O)c3ccccc3Cl)C2)nc2c1nnn2Cc1ccc2c(c1)OCCO2 (stereo not drawn) | > 100 µM (inactive) | > 100
Cc1cccc(NC(=O)c2sc3nc(-c4ccccc4)cn3c2C)n1 |  | > 100
O=C(c1cccs1)c1c[nH]cc1-c1ccccc1 |  | > 100
Cc1c(Cc2ccccc2)sc(NC(=O)Cc2ccccc2)c1C(N)=O | > 100 µM (inactive) | 
COC(=O)c1sccc1NC(=O)CNC(=O)c1ccccc1 |  | > 100
CN(c1ccccc1)S(=O)(=O)c1cccc(NC(=O)CCNC(=O)c2ccc([N+](=O)[O-])cc2)c1 | > 100 µM (inactive) | > 100
Fc1ccc(-c2nc3ccc(Cl)cn3c2Cc2cccc(Cl)c2)cc1 |  | > 100
C=CCN(CC=C)C(=O)c1ccc2nc(Cc3ccc(OC)c(OC)c3)oc2c1 | > 100 µM (inactive) | 

Compound | AC50 | AC50 [1] [µM]
O=C(O)CC(CC(=O)Nc1ccc(Oc2ccccc2)cc1)c1ccccc1 (stereo not drawn) | > 100 µM (inactive) | > 100
CCCNc1ccc(C(=O)OCC)cc1[N+](=O)[O-] | > 100 µM (inactive) | > 100
COc1ccc2nc(SCC(=O)Nc3ccccc3)[nH]c2c1 | > 100 µM (inactive) | > 100
O=C(COC(=O)C1CC1)Nc1nc(-c2ccc(F)c(F)c2)cs1 | > 100 µM (inactive) | 
O=C(Cc1c(Cl)cccc1Cl)Nc1cccc(S(=O)(=O)N2CCOCC2)c1 | > 100 µM (inactive) | 
Cc1nn(-c2cccc(Cl)c2)nc1C(=O)O | > 100 µM (inactive) | 
COc1ccc(CSc2nc3ccccc3c(=O)n2CCCN2CCOCC2)cc1F | > 100 µM (inactive) | 
COC(=O)c1c(NC(=O)CCC(=O)O)sc(Cc2ccccc2)c1C | 3.63 µM | 
CCCCOc1ccc(-c2nnn(CCC(=O)N3CCOCC3)n2)cc1 |  | > 100
O=c1[nH]c(C2CCN(S(=O)(=O)c3ccc4c(c3)OCCO4)CC2)nc2c1nnn2Cc1ccccc1F | > 100 µM (inactive) | > 100
O=C(c1cnc(Cc2c[nH]c3ccccc23)c(I)c1)N1CCCCC1 | > 100 µM (inactive) | > 100
COc1ccccc1CNC(=O)CN1C(=O)NC(c2ccccc2)(c2ccccc2)C1=O | > 100 µM (inactive) | > 100
Cc1ccc(-n2nc(C)c3c(C)c(CCC(=O)O)c(C)nc32)cc1C | > 100 µM (inactive) | > 100
COc1ccc(-c2csc(NC(=O)c3ccccc3S(C)(=O)=O)n2)cc1 |  | > 100
CCN(CC)S(=O)(=O)c1ccc(N2CCCC2)c(NC(=O)c2ccccc2OC)c1 |  | > 100
Cc1cccc(NC(=O)c2c(C)nn(-c3ccccc3)c2Cl)c1 |  | 41.6
CC(=O)Nc1ccc(S(=O)(=O)Nc2cccc(-c3nc4cc(C)ccc4o3)c2)cc1 | > 100 µM (inactive) | > 100
Cc1ccc(-c2nc3ccc(NS(=O)(=O)c4ccccc4)cc3[nH]2)o1 | > 100 µM (inactive) | 33.6
O=C1OC[C@@H]2CCCN2C(=O)[C@@H](CC(=O)N(CCO)Cc2ccccc2)C/C=C\C[C@H]1Cc1ccc(F)cc1 | > 100 µM (inactive) | 
CCN(c1ccccc1)S(=O)(=O)c1ccc(Cl)c(NC(=O)CSc2n[nH]c(N)n2)c1 | > 100 µM (inactive) | > 100
CCn1c(-c2ccccc2Cl)nn(CC(=O)Nc2ccccc2OC)c1=S | > 100 µM (inactive) | > 100
O=C(COC(=O)C1CC2C=CC1C2)Nc1ccc([N+](=O)[O-])cc1 (stereo not drawn) | > 100 µM (inactive) | > 100

Compound | AC50 | AC50 [1] [µM]
COc1cc(OC)cc(C(=O)Nc2ccc(C(=O)Nc3ccccc3OC)cc2)c1 | > 100 µM (inactive) | 
CC(=O)OC(COc1cccc(C)c1)Cn1cnc2ccccc21 (stereo not drawn) | > 100 µM (inactive) | > 100
CCOC(=O)c1c(C)[nH]c(C)c1S(=O)(=O)NCCN1CCN(c2ccccc2F)CC1 |  | > 100
O=C(Nc1cccc(O)c1)c1cccc(S(=O)(=O)Nc2cccc(O)c2)c1 | > 100 µM (inactive) | > 100
COC(=O)c1cc(C(=O)c2c(C)cc3ccccn23)cc([N+](=O)[O-])c1 |  | > 100
Nc1ccc(C(=O)Nc2ccc3nc(-c4ccncc4)[nH]c3c2)cc1 |  | > 100
CC(=O)N1CCOc2ccc(S(=O)(=O)N(C)c3ccc(C)cc3)cc21 | > 100 µM (inactive) | 
Cc1ccccc1Nc1c(-c2cccnc2)nc2ccc(Br)cn12 |  | > 100
COc1cccc(-c2ccc(NC(=O)C3CCCN(Cc4cnn(C(C)C)c4)C3)cc2)c1 (stereo not drawn) |  | > 100
CSc1ncc(CN2CCCC(C(=O)c3cccc(Cl)c3)C2)cn1 (stereo not drawn) | > 100 µM (inactive) | > 100
COc1ccc(C2CC(c3cccs3)=Nc3ccccc3S2)cc1 (stereo not drawn) |  | > 100
Cc1cccc(C(=O)NCC(=O)N2CC=C(c3ccccc3)CC2)c1 | > 100 µM (inactive) | 
Cc1ccc(NC(=O)c2ccc([N+](=O)[O-])o2)c(C)c1 | > 100 µM (inactive) | 
Cc1cc(C(=O)COC(=O)CNC(=O)c2ccccc2)c(C)n1CC1CCCO1 (stereo not drawn) | > 100 µM (inactive) | 
O=C(NCCc1csc(-c2ccccc2)n1)c1ccccc1F | > 100 µM (inactive) | 
COC(=O)c1ccc2nc(-c3ccc(OC)c(OC)c3)c(Cc3ccc(C)cc3)n2c1 | > 100 µM (inactive) | 
Cc1ccc(NS(=O)(=O)c2ccc3c(c2)CCC(=O)N3)cc1C | > 100 µM (inactive) | 
CCOc1cccc(-c2cc(-c3n[nH]c(=S)n3CC)c3ccccc3n2)c1 | > 100 µM (inactive) | 
O=C(COc1ccccc1Cl)Nc1nc(-c2ccncc2)cs1 | > 100 µM (inactive) | 
COc1ccc(OC)c(NC(=O)COC(=O)C2CCN(C(=O)c3ccc(Cl)cc3)CC2)c1 | > 100 µM (inactive) | 
O=C(NCCCCc1ccccc1)c1cccc(NC(=O)C2CCCCC2)c1 | > 100 µM (inactive) | > 100
O=C(O)c1ccc(Oc2ccc([N+](=O)[O-])cc2)c([N+](=O)[O-])c1 | > 100 µM (inactive) | 

Reference: PubChem BioAssay AID977630 (Broad Institute, 2014)
